Source: PubChem BioAssay (NCI)
Several values for one entry are separate records, joined by “and”; a condition that tells them apart may be missing. Equal entries are not always repeated.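 Tested at 5 concentrations; 48 h exposure; 96-well plates; endpoints linearly interpolated, else capped at highest concentration. GI50 = concentration required for 50% inhibition of growth. TGI denotes the concentration required for complete inhibition of growth.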

Test system: MDA-MB-468 breast
Experiment: NCI tumour cell line growth inhibition, 48 h

CN1CC[C@@H](c2c(O)cc(O)c3c(=O)cc(-c4ccccc4Cl)oc23)[C@@H]1CO
GI50: 251 nM
TGI: 772 nM

O=[N+]([O-])c1cccc([As]=[As]c2cccc([N+](=O)[O-])c2)c1 (configuration not stated)
GI50: 52.9 nM
TGI: 194 nM

COc1ccc(C(=O)c2cc3c(N)c(C(=O)Nc4cccc5ccccc45)sc3nc2C)cc1
GI50: 220 nM
TGI: > 50000 nM

COc1ccc(/C=C2\CCCC3=C2NC(N)=NC3c2ccc(OC)c(OC)c2)cc1OC (configuration not stated)
GI50: 921 nM
TGI: 8840 nM

O=C(Nc1ccc(Cl)cc1)Nc1ccc(Nc2nncc3ccccc23)cc1
GI50: 2570 nM
TGI: 9470 nM

CN(C)c1ccc2nc3ccc(=[N+](C)C)cc-3sc2c1
GI50: 233 nM and 469 nM
TGI: 1010 nM and 3630 nM

NC(=S)N/N=C/c1ncccc1N
GI50: 1890 nM
TGI: 10200 nM

COC(=O)c1cc2ccc(OC(C)=O)c(OC(C)=O)c2cn1
GI50: 16100 nM
TGI: 33500 nM

CCOc1cc2ncc(C#N)c(Nc3ccc(OCc4ccccn4)c(Cl)c3)c2cc1NC(=O)/C=C/CN(C)C
GI50: < 10 nM and 5.01 nM
TGI: 41.5 nM and 47.9 nM

CC1(C)[C@@H](OC(N)=O)[C@H]2O[C@H]2[C@]2(CO)[C@H]3CC[C@]4(C)[C@@H](c5ccc(=O)oc5)[C@@H](Cl)C[C@]4(O)C3=CC[C@@H]12
GI50: 21 nM
TGI: 96.5 nM

Nc1nc(Nc2ccc(C3CCC(N4CCOCC4)CC3)cc2)nn1-c1ccccn1 (configuration not stated)
GI50: 11200 nM
TGI: > 100000 nM

O=C(Nc1ccc(Cl)c(Cl)c1)O/N=C\c1c(Cl)ccc([N+](=O)[O-])c1Cl
GI50: 1080 nM
TGI: 2720 nM

CCOc1ccccc1N=Nc1c(C)[nH]n(-c2nc(-c3ccccc3)cs2)c1=O
GI50: 8490 nM
TGI: > 100000 nM

COc1cccc(-n2ncc3c(N/N=C/c4ccncc4)ncnc32)c1
GI50: 5150 nM
TGI: > 25000 nM

COc1ccc(C(=O)/C=C/c2c(Cl)c3c(c(OC)c2Cl)OCC(=O)N3)cc1
GI50: 1690 nM
TGI: 3700 nM

COc1cc(C2c3cc4c(cc3OC(NNC(N)=O)C2C)OCO4)cc(OC)c1O (configuration not stated)
GI50: 7500 nM
TGI: > 100000 nM

Cc1ccc(CNc2c3ccccc3nc3cc(NC(=O)CCN4CCCC4)ccc23)cc1
GI50: 449 nM
TGI: 1630 nM

C1CN(SSN2CCOCC2)CCO1
GI50: > 100000 nM
TGI: > 100000 nM

Cc1cc(N2CCCC2)nc(N(CCNc2ccnc3cc(Cl)ccc23)Cc2ccco2)n1
GI50: 1960 nM
TGI: 6670 nM

O=c1nc2oc3ccc4ccccc4c3cc-2s1
GI50: 551 nM
TGI: 19500 nM

COc1cc(C(=O)NC2CCN(C)CC2)c(F)cc1Nc1ncc2c(n1)N(C1CCCC1)CC(F)(F)C(=O)N2C
GI50: < 10 nM
TGI: 633 nM

CC(C)(O)CC(=O)NCCn1ccc2ncnc(Nc3ccc(Oc4cccc(C(F)(F)F)c4)c(Cl)c3)c21
GI50: 272 nM
TGI: 4060 nM

O=C(/C=C/c1ccc([N+](=O)[O-])cc1)c1ccc2c3c(cccc13)CC2
GI50: 2980 nM
TGI: 19300 nM

Cc1ccc(S(=O)(=O)Nc2cccc3[nH]c(C(F)(F)F)nc23)cc1
GI50: 536 nM
TGI: 26100 nM

O=C(NC[C@H](O)CO)c1ccncc1Nc1ccc(I)cc1F
GI50: > 10000 nM and 12100 nM
TGI: > 66000 nM

CC[C@H](CO)Nc1nc(NCc2ccccc2)n2ncc(C(C)C)c2n1
GI50: 1880 nM
TGI: 5190 nM

NC(=O)c1c(NC(=O)c2ccc3c(c2)OCO3)sc2c1CCC(=O)C2
GI50: 1960 nM
TGI: 4430 nM

CCN(CC)Cc1ccc(Nc2nccc(-c3cnn4ncccc34)n2)cc1
GI50: 35 nM
TGI: 97.5 nM

CCCCN(CCCC)c1ccc(C(=N)c2ccc(N(CCCC)CCCC)cc2)cc1
GI50: 189 nM
TGI: 748 nM

O=C(COc1ccc(/C=C2\Oc3ccccc3C2=O)cc1)Nc1nc2c(s1)CCCC2
GI50: 309 nM
TGI: 1860 nM

Cn1cc(C2=C(c3cccc(OCC(O)CO)c3)C(=O)NC2=O)c2ccccc21 (configuration not stated)
GI50: > 25000 nM
TGI: > 25000 nM
